Measurements from BindingDB's records for patent US20230382904 (The Johns Hopkins University, 2023).

Legend:
[1] = biological target: T1, Mitogen-activated protein kinase kinase kinase 13 (Homo sapiens, UniProt O43283); assay: LZK Biochemical Assay
T1 sequence (O43283 whole entry): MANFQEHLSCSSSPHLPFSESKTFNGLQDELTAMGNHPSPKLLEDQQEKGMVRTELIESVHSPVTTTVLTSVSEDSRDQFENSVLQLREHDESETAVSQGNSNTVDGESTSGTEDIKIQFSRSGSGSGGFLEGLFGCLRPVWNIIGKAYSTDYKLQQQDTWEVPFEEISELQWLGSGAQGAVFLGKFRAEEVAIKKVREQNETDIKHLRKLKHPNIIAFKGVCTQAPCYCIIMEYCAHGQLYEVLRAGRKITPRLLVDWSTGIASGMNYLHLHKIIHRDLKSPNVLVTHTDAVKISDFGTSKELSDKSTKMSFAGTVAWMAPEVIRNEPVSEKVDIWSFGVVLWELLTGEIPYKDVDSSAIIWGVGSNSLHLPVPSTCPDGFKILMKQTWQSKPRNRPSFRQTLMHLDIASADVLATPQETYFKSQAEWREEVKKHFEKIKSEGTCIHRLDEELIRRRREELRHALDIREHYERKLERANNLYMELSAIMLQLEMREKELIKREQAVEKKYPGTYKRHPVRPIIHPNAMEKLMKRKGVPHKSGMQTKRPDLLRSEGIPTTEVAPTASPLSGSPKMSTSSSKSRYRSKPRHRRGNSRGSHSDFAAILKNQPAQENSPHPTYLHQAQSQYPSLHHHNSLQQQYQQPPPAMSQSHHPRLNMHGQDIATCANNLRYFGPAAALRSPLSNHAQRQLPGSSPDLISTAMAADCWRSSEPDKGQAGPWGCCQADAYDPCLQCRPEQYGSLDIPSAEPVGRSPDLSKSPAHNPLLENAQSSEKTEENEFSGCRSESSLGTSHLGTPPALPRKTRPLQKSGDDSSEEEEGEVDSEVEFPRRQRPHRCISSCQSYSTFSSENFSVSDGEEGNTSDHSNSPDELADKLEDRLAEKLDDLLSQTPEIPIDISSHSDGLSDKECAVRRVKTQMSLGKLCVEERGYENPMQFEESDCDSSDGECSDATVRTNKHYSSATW
Description: All indicated concentrations final concentrations. […] Detection buffer: 25 mM Tris/HCl pH 7.5, 100 mM EDTA, 100 mM NaCl, 200 mM KF, 0.01% Tween 20, 1:500 Smart Block.

[2] = biological target: T2, Mitogen-activated protein kinase kinase kinase 12 (Homo sapiens, UniProt Q12852); assay: DLK Biochemical Assay
T2 sequence (Q12852 whole entry): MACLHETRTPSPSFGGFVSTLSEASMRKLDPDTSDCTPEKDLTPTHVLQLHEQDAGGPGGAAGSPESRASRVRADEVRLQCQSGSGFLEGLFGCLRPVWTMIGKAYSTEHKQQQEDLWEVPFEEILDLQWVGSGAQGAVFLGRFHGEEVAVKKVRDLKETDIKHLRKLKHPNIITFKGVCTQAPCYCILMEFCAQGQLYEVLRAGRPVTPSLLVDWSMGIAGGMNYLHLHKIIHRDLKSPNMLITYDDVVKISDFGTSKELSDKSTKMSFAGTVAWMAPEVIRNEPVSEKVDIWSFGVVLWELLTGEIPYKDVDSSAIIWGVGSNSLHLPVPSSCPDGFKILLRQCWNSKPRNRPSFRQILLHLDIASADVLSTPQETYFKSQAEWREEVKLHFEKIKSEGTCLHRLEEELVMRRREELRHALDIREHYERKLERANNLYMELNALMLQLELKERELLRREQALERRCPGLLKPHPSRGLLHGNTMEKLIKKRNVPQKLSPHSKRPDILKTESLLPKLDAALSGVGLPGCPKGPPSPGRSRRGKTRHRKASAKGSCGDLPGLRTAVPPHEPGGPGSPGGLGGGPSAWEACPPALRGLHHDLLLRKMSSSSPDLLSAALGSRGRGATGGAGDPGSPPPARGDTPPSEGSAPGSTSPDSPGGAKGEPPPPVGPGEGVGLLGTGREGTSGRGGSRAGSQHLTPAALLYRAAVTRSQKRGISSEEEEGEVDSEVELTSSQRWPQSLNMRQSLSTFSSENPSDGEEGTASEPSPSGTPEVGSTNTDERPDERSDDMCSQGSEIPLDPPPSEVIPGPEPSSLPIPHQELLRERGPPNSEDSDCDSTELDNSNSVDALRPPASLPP

IC50 [1]: 41 nM
IC50 [2]: 4.3 nM
Structure (SMILES): COC[C@H](NC(=O)c1cc(-c2cc(C(=O)NC(C)C)n3nc(N)nc3c2)cs1)c1ccccc1 [US20230382904, Compound 155]
